Patent US20220257710A1, “ANTI-INFECTION EFFECTS OF HNRNPA2B1 AND USE THEREOF” (INSTITUTE OF BASIC MEDICAL SCIENCES, CHINESE ACADEMY OF …, priority 2019, published 2022)

System: HSV-1 DNA
Experiment: Immunoprecipitation of nuclear protein with anti-hnRNPA2B1 antibody and PCR detection of HSV-1 DNA
Assay type: binding, HSV-1 (strain F)
Details: mouse primary peritoneal macrophages, 2 hours after HSV-1 infection, PCR
Protocol: Obtaining the primary peritoneal macrophages of mice: C57BL/6 mice (6-8 weeks old, female, Shanghai Bikai Experimental Animal Co., Ltd.) were intraperitoneally injected with 2 ml of 3% mercaptoacetate (Sigma Aldrich) solution once. Three days later, the mice were sacrificed by cervical dislocation, and the abdominal cavity was washed with serum-free medium, sucked out and centrifuged to obtain cells.
The primary peritoneal macrophage cells were cultured in DMEM medium. After HSV-1 (strain F, ATCC) infection for 2 hours, nuclear protein was isolated and immunoprecipitated by anti-hnRNPA2B1 antibody (Santa Cruz) or control antibody (IgG, Santa Cruz). HSV-1 DNA was detected by PCR.

Substance: hnRNPA2B1: heterogeneous nuclear ribonucleoprotein A2B1; endogenous nuclear protein of mouse macrophages precipitated by anti-hnRNPA2B1 antibody
- binding of hnRNPA2B1 to HSV-1 DNA: bound
